# Literature values in article PMC11599114 (Viruses, 2024).
# Like-named read-outs stand apart in the source and are kept apart here.
# Columns and labels:
# HSV-1 = details: HSV-1, Vero
# HSV-2 = details: HSV-2, Vero
# SARS-CoV-2 [1] = details: SARS-CoV-2, Vero
# HCoV-229E = details: Vero
# HCoV-OC43 = details: HCoV-OC43, Vero
# Measles virus(MeV) = details: VERO/hSLAM
# [2] = system: influenza virus(H1N1,VR-1894); details: H1N1 VR-1894, MDKC
# RSV = details: fusion, ref AVPdb
# INFVA = system: INFVA; parameters: method as in AVPdb; details: ref AVPdb; for IC50: virus entry; for EC50: fusion
# [3] = system: human parainfluenza virus 3 (HPIV3); parameters: method as in ref 16973588; details: HPIV3 infection, HeLa
# [4] = system: human parainfluenza virus 3 (HPIV3); parameters: method as in ref 16973588; details: HPIV3 fusion, HeLa
# influenza A virus(H1N1) = system: influenza A virus(H1N1); parameters: method as in 2 sources
# SARS-CoV-2 [5] = system: SARS-CoV-2; parameters: method as in ref 34328726; details: for IC50: SARS-CoV-2 entry, HEK293T/ACE2
# A/Roma-ISS/02/08 H1N1 = details: A/Roma-ISS/02/08 H1N1, MDCK
# influenza A virus(H3N2) = system: influenza A virus(H3N2); parameters: method as in 2 sources; details: H3N2, MDCK
# SARS-CoV = details: 100 µM
# Hendra virus(HeV) [6] = system: Hendra virus(HeV)
# Hendra virus(HeV) [7] = system: Hendra virus(HeV); remark: listed apart in the source
substance,measurement,setting,value
FVPWFSKFlXRIL [DRAVPe00380],IC90,HSV-1,15.9 µM
same,IC90,HSV-2,19 µM
same,IC90,SARS-CoV-2 [1],25 µM
same,IC90,HCoV-229E,> 50 µM
same,IC90,HCoV-OC43,27.7 µM
FVPWFSKFlXRILC [DRAVPe00389],IC90,HSV-1,11.1 µM
same,IC90,SARS-CoV-2 [1],12 µM
same,IC90,Measles virus(MeV),> 50 µM
same,IC90,[2],10 µM
FVPWFSKFlXRILGGC [DRAVPe00390],IC90,HSV-1,48 µM
same,IC90,SARS-CoV-2 [1],50 µM
same,IC90,Measles virus(MeV),> 50 µM
same,IC90,[2],49.9 µM
FVPWFSKFlwRIL [DRAVPe00386],IC90,HSV-1,7.89 µM
same,IC90,HSV-2,9.76 µM
same,IC90,SARS-CoV-2 [1],14.8 µM
same,IC90,HCoV-229E,50 µM
same,IC90,HCoV-OC43,17.4 µM
FVPWFSKFlxRIL [DRAVPe00382],IC90,HSV-1,12.8 µM
same,IC90,HSV-2,11.9 µM
same,IC90,SARS-CoV-2 [1],17.4 µM
same,IC90,HCoV-229E,> 50 µM
same,IC90,HCoV-OC43,24.7 µM
FYDPLVFPSDEFDASISQVNEKINQSLAFIRKSDE [AVP0130],IC50/EC50,RSV,20 µM
GAWYKGRARPVSAVA [AVP0963],IC50,INFVA,53000 nM
GWWYKGRARAVSAVA [AVP0964],IC50,INFVA,89000 nM
GWWYKGRARPVSAVA [AVP0961],IC50,INFVA,3200 nM
IDISIELNKAKSDLEESKEWIRRSNQKLDSIGNWH [DRAVPe00930],IC50,[3],0.5 µM
same,IC50,[4],1.5 µM
IINFYDPLVFPSDEFDASISQVNEKINQSLAFIRK [AVP0127],IC50/EC50,RSV,91 µM
INFYDPLVFPSDEFDASISQVNEKINQSLAFIRKS [AVP0128],IC50/EC50,RSV,93 µM
IPLRGAFINGRWDSQCHRFS [DRAVPe01801],IC50,"influenza A virus(H1N1); A(H1N1), MDCK",12.9 µg/mL
IYALLENAEDYNLVN [DRAVPe01985],IC50,SARS-CoV-2 [5],0.009 ± 0.004 µM
same,inhibition,SARS-CoV-2 [5]; at 25 µM,100%
KANEGLTWNSLKDK [DRAVPe01644],EC50,A/Roma-ISS/02/08 H1N1,0.001 ± 0.00015 µM
KFFRKKSVKK [DRAVPe01822],EC50,"influenza A virus(H1N1); H1N1, MDCK",5.2 ± 0.9 µM
same,EC50,influenza A virus(H3N2),7.36 ± 1.2 µM
LVFPSDEFDASISQVNEKINQSLAFIRKSDELLHN [AVP0134],IC50/EC50,RSV,9 µM
NFYDPLVFPSDEFDASISQVNEKINQSLAFIRKSD [AVP0129],IC50/EC50,RSV,>100 µM
NFYDPLVFPSDEFDASISQVNEKINQSLASIRKSDELLHNVNAGK [AVP1972],IC50/EC50,RSV,2.93 µM
NGESSADWAKN [AVP1196],EC50,INFVA,225 ± 1.16 pM
NHEAEDLFY [DRAVPe01629],inhibition,SARS-CoV,30%
PLVFPSDEFDASISQVNEKINQSLAFIRKSDELLH [AVP0133],IC50/EC50,RSV,30 µM
PSDEFDASISQVNEKINQSLAFIRKSDELLHNVNA [AVP0137],IC50/EC50,RSV,6 µM
QDKHEEDYQMYNKGDKED [DRAVPe01982],IC50,SARS-CoV-2 [5],0.018 ± 0.002 µM
same,inhibition,SARS-CoV-2 [5]; at 0.39 µM,95%
same,inhibition,SARS-CoV-2 [5]; at 25 µM,100%
RAVWRHSVATPSHSV [AVP0969],IC50,INFVA,> 500000 nM
RRKKAAVALLPAVLLALLAP [AVP0554],IC50,INFVA,8000 nM
RRKKIFYFFR [AVP1759],IC50,INFVA,155 nM
RRKKWLVFFVIFYFFR [AVP1754],IC50,INFVA,0.04 nM
SDEFDASISQVNEKINQSLAFIRKSDELLHNVNAG [AVP0138],IC50/EC50,RSV,6 µM
SIELNKAKSDLEESKEWIRRSNQKLDSI [DRAVPe01316],IC50,Hendra virus(HeV) [6],> 10 µM
same,IC50,Hendra virus(HeV) [7],> 1 µM
same,IC50,[3],> 10 µM
same,IC50,[4],> 10 µM
SKHSSLDCVLRP [AVP1194],EC50,INFVA,4 ± 0.37 pM
SRDKHEEHEKENDRGQ [DRAVPe01986],IC50,SARS-CoV-2 [5],0.01 ± 0.005 µM
same,inhibition,SARS-CoV-2 [5]; at 25 µM,100%
VALDPIDISIELNKAKSDLEESKEWIRR [DRAVPe01315],IC50,Hendra virus(HeV) [6],> 10 µM
same,IC50,Hendra virus(HeV) [7],> 1 µM
same,IC50,[3],> 10 µM
same,IC50,[4],> 10 µM
VALDPIDISIELNKAKSDLEESKEWIRRSNQKLDSD [DRAVPe01313],IC50,[3],0.5 µM
same,IC50,[4],0.35 µM
VALDPIDISIELNKAKSDLEESKEWIRRSNQKLDSI [DRAVPe01311],IC50,[3],0.5 µM
same,IC50,[4],0.5 µM
VANDPIDISIELNKAKSDLEESKEWIRRSNQKLDSD [DRAVPe01314],IC50,Hendra virus(HeV) [6],> 10 µM
same,IC50,Hendra virus(HeV) [7],> 1 µM
same,IC50,[3],1.1 µM
same,IC50,[4],0.75 µM
VANDPIDISIELNKAKSDLEESKEWIRRSNQKLDSI [DRAVPe01312],IC50,[3],1.1 µM
same,IC50,[4],0.75 µM
VFPSDEFDASISQVNEKINQSLAFIRKSDELLHNV [AVP0135],IC50/EC50,RSV,19 µM
WLVFFVIAYFAR [AVP1755],IC50,INFVA,0.87 nM
WLVFFVIFYFFR [AVP1756],IC50,INFVA,93.6 nM
WLVFFVIFYFFRRRKK [AVP1753],IC50,INFVA,0.03 nM
WLVFFVRRKK [AVP1806],IC50,INFVA,638 nM
YDPLVFPSDEFDASISQVNEKINQSLAFIRKSDEL [AVP0131],IC50/EC50,RSV,6 µM
